Results from US20030157502A1, “Chemotherapeutant screening method” (priority 1999, published 2003).
Read-outs that look alike come from different tables or passages of the source. Starred links: 1 amine or outer side, 2 acyl side, 3 side chain; linkers in the order of their positions; H or OH if unused. Positions of bridges follow the written chain, without caps; N, C: chain ends. Non-standard residues stand in square brackets, D forms with d. Residues, ends and D or L forms follow the SMILES beside them. Chains are numbered I, II in the order given. Actinocin(9to1) = Cc1c2oc3c(C)ccc(C(=O)[*:1])c3nc-2c(C(=O)[*:2])c(N)c1=O; NMeV = CN[C@H](C(=O)O)C(C)C; Sar = CNCC(=O)O

Experiments:
HepG2 cells = test: Apoptosis by PI exclusion and forward/side scatter (FSC/SSC); type: cell-based; settings: 100 μg/ml 5-FU, after 48 hours
Description: FIG. 1: Chemotherapeutic agents effect CD95-mediated death in HepG2 cells HepG2 cells were cultured almost up to confluence and then incubated with 100 μg/ml 5-FU over the indicated periods in the presence of either an isotype-adapted control antibody or the anti-CD95L antibody NOK-1 (50 μg/ml). The same experiment was carried out with the addition of CD95-Fc (50 μg/ml). Apoptosis was determined by PI exclusion and measurement of the forward/side scatter (FSC/SSC). The data shown are average values with standard deviations from three samples.
Following the corresponding treatment, the cells were trypsinated with 1% trypsin-EDTA for 5 min., washed twice with PBS and stained using 2.5 μg/ml propidium iodide (PI; Sigma). The stain uptake was measured by means of a “FACScan” cytometer (Becton Dickinson GmbH, Heidelberg, Germany) using the “CellQuest” Software. Changes in the forward/side scatter (FSC/SSC) of the cell population were evaluated as well. For quantifying the DNA fragmentation the supernatants were centrifuged at 200×g, the cells were trypsinated and washed as indicated above. […] The nuclei were then analyzed as regards their DNA content by means of flow cytometry (Nicoletti et al., Journal of Immunological Methods 139 (1991), 271). […]

CD95L-mRNA [1] = type: cell-based, human; settings: for upward regulation of CD95L-mRNA: HepG2 (wt p53) cells; for effect on transcription or translation of the housekeeping gene β-actin: subtoxic concentrations
CD95L-mRNA [2] = test: CD95L-mRNA expression by RT-PCR in Hep3B cells; type: cell-based, human; settings: Hep3B (p53 -/-) cells
SKW6.4 cells = test: 51Cr release assay, Hep3B effector cells and SKW6.4 target cells; type: cell-based, human; settings: Hep3B treated with 100 μg/ml 5-FU 48 hours before incubation
Description: FIG. 3: The treatment with chemotherapeutic agents results in an upward regulation of functional CD95L A ^51Cr release assay with Hep3B cells as effectors and SKW6.4 cells as target was used. Hep3B cells were cultured in 96-well plates treated with 5-FU. After 48 hours, the chemotherapeutic agents were removed from the culture medium and ^51Cr-labeled SKW6.4 cells were added with either a control antibody or the anti-CD95L antibody NOK-1. Following incubation overnight, the supernatants were measured in a gamma counter. Relative lysis was calculated as indicated in Example 1. E/T is the ratio between effector cells and target cells. Every series of concentration was carried out threefold. The diagram represents an experiment from a series of independent experiments having the same result.
CD95L-mediated cytotoxicity induced by chemotherapy was studied. Hep3B cells (effector cells) were seeded into 96-well plates and treated with chemotherapeutic agents for 48 hours. […] After 12 to 16 hours, 100 μl supernatant of each well were collected and measured in a gamma counter. The specific lysis was calculated in accordance with formula L=(E−S)/(T−S), E representing the gamma counts of the unknown sample, S being the spontaneous lysis of the labeled target cells in the medium without effector cells, and T representing the maximum release of the target cells kept in 2 N HCl. […]

CD95L promoter = CD95L promoter luciferase reporter assay in transiently transfected Hep3B cells; type: cell-based, human; settings: for effect of the combination on activation of the CD95L promoter: 5-FU plus etoposide, 48 hours
Description: Every bar represents the calculated value from treated/untreated cells. The transfection efficiency in A and B was monitored by cotransfection of a renilla Luciferase construct controlled by a basal promoter. […] B: Titration of 5-FU. Hep3B cells were transiently transfected with the −36/+100 promoter construct. […] The cells were lyzed and the luciferase activity was determined.
The cotransfected cells were then treated with 100 μg/ml 5-FU for 48 hours or not treated. The transfection efficiency was normalized by either cotransfection of an expression vector for chloramphenicol transferase (CAT) or renilla luciferase (both controlled by a basal promoter). The luciferase activity was measured using the “dual luciferase” assay (Promega company) in accordance with the manufacturer's instructions, and the CAT activity was determined by means of a commercially available CAT ELISA. Average values (with standard deviation) from different independent experiments are shown. B: “Dual luciferase” assay with Hep3B cells cotransfected with the described CD95L promoter construct and a renilla-luciferase expression vector (as a control for the transfection efficiency). The cells were collected at the indicated times. In addition, the protein content of the transfected cells was determined. The data are average values (with standard deviation) from three samples of a representative experiment. Four independent experiments were carried out.
Hep3B cells were transfected with the −36/+100 construct (CD95L prom wt) or the APX4 construct (mutated −36/+100 CD95L.luc; Cd95L prom mut). The transfection efficiency was monitored by cotransfection with renilla luciferase. Following transfection the cells were treated with 5-FU (100 μg/ml) for 48 hours. The luciferase activity was measured and the multiplication of induction was calculated.
One day before the transfection, the cells were plated out with a density of 0.6×10^6/9 cm Petri dishes. The medium was exchanged two hours before the transfection. The transfection was carried out by means of the method based on calcium phosphate precipitation. In summary, 5 to 40 μg DNA were diluted in 500 μl of a calcium chloride solution. The DNA/calcium chloride mixture was added drop-wise to 500 μl HBS. Precipitation was carried out at room temperature for 20 min., and then the precipitation mixture was added to the culture medium. The precipitate was allowed to stay on the cells for 12 to 24 hours. Thereafter, the cells were shock-treated using 16% glycerin in full medium for 3 min. Following three wash steps using PBS, the cells were cultured in medium supplemented with 20% FCS for at least six hours. Finally, the cells were distributed over 6-well plates, and the chemotherapeutic treatment was started for different periods.
After three wash steps in PBS, the cells were lyzed in 200 μl passive lysis buffer (Promega). Following 20 minutes of incubation at room temperature, the cells were scratched off the plates. The lyzates were subjected to two freeze/thaw cycles and then cell debris was removed by centrifugation.

c-Jun [3] = test: c-Jun immunofluorescence in Hep3B cells; type: cell-based, human; settings: 5-FU 100 μg/ml for 40 hours
Description: (§1) Thereafter, the cells were either not treated (A) or treated with 5-FU (100 μg/ml) for 40 hours (B), fixed and stained as described. C+D: Human primary hepatocytes were isolated as described in Example 1 and seeded onto culture dishes. Thereafter, the cells were either not treated (C) or treated with 5-FU (50 μg/ml) for 40 hours (D), fixed and stained with an antibody specific to c-Jun.
Cultured Hep3B cells or freshly isolated human primary hepatocytes were plated onto Lab-Tek™ chamber slides (Renner GmbH, Darmstadt, Germany). Following culturing over a period of at least two days, the cells were treated with chemotherapeutic agents. Thereafter, fixation in methanol/acetone (5 min. or 10 sec. at −20° C.) was carried out. Then, the cells were initially incubated at 37° C. for 1 hour with the specific primary antibody against human c-Jun (Santa Cruz GmbH, Heidelberg, Germany), and after three wash steps using PBS, the cells were covered with fluorescein-isothiocyanate-conjugated goat anti-rabbit IgG (Dianova, Hamburg, Germany) for 1 hour. Non-specific staining was monitored by incubation with mouse or rabbit immunoglobulins in place of the specific primary antibody or by blocking the primary antibody with the immunogenic peptide. The slides were covered with cover glasses and evaluated by means of a fluorescence microscope. […]

c-Jun [4] = test: c-Jun immunofluorescence in primary human hepatocytes; type: cell-based; settings: 5-FU 50 μg/ml for 40 hours
Description: as §1
Primary human hepatocytes were obtained by means of a 2-step perfusion technique from healthy liver tissue of patients undergoing partial liver resection. For this purpose, a cannula was introduced into a blood vessel of the removed liver tissue and it was perfused with Ca-free and Mg-free “Hank's balanced salt solution (HBSS; Gibco BRL) containing 0.5 mM EDTA and 50 mM HEPES for 15 to 20 min. […] The viability was determined by means of the trypan blue exclusion method. […]
Cultured Hep3B cells or freshly isolated human primary hepatocytes were plated onto Lab-Tek™ chamber slides (Renner GmbH, Darmstadt, Germany). […] Non-specific staining was monitored by incubation with mouse or rabbit immunoglobulins in place of the specific primary antibody or by blocking the primary antibody with the immunogenic peptide. The slides were covered with cover glasses and evaluated by means of a fluorescence microscope. […]

| Compound | upward regulation of CD95L-mRNA (CD95L-mRNA [1]) | upward regulation of CD95L-mRNA (CD95L-mRNA [2]) | effect of the combination on activation of the CD95L promoter (CD95L promoter; Hep3B cells) | effect on the upward regulation of CD95L following treatment with chemotherapeutic agents (CD95L-mRNA [1]) | effect on transcription or translation of the housekeeping gene β-actin (CD95L-mRNA [1]) | other results |
| --- | --- | --- | --- | --- | --- | --- |
| O=c1[nH]cc(F)c(=O)[nH]1 [5-FU, 5-fluorouracil] | regulate upward | regulate upward | synergistic effect | – | – | apoptosis rate (HepG2 cells): 43%; killing of CD95-bearing SKW6.4 cells by treated Hep3B cells (SKW6.4 cells): significant killing; inducibility of CD95L promoter luciferase constructs (-1204/+100 to -36/+100) (CD95L promoter; Hep3B cells transiently transfected): inducible; inducibility of the AP-1-mutated -36/+100 reporter construct (CD95L promoter; Hep3B cells, 100 μg/ml 5-FU, 48-hour treatment): almost fully eliminated; time of maximum activation of the -36/+100 construct (CD95L promoter; Hep3B cells, -36/+100 luciferase construct): 64 h; response of the -36/+19 construct (lacks AP-1 site) (CD95L promoter; Hep3B cells, incubation up to 64 hours): did not respond; AP-1 (c-Jun) nuclear staining (c-Jun [3]): widely accumulated AP-1 within the nucleus; AP-1 (c-Jun) nuclear staining (c-Jun [4]): intensive nuclear reactivity |
| Cc1c2oc3c(C)ccc(C(=O)N[C@@H]4C(=O)N[C@H](C(C)C)C(=O)N5CCC[C@H]5C(=O)N(C)CC(=O)N(C)[C@@H](C(C)C)C(=O)O[C@@H]4C)c3nc-2c(C(=O)N[C@@H]2C(=O)N[C@H](C(C)C)C(=O)N3CCC[C@H]3C(=O)N(C)CC(=O)N(C)[C@@H](C(C)C)C(=O)O[C@@H]2C)c(N)c1=O [actinomycin C1] (I: T[dV]P[Sar][NMeV] / II: T[dV]P[Sar][NMeV]; ester I:1-I:C, II:1-II:C; linker I:N-II:N via Actinocin(9to1)) | – | – | – | reduced efficiently | no effect | – |
| C[C@@H]1C[C@@H]([C@H](O)CC2CC(=O)NC(=O)C2)C(=O)[C@@H](C)C1 [cycloheximide] | – | – | – | reduced efficiently | no effect | – |
| COc1cc([C@@H]2c3cc4c(cc3[C@@H](O[C@@H]3O[C@@H]5CO[C@@H](C)O[C@H]5[C@H](O)[C@H]3O)[C@H]3COC(=O)[C@H]23)OCO4)cc(OC)c1O [etoposide] | regulate upward | regulate upward | synergistic effect | – | – | – |
| bleomycin | regulated upward | regulated upward | – | – | – | – |
